Measurements: US10660877B2 (BRISTOL-MYERS SQUIBB COMPANY, priority 2016, dated 2020)
Like-named read-outs stand apart in the source and are kept apart here. One block for each compound: values may come before it.

Legend:
[1] = target: human TLR8 (Homo sapiens (Human), UniProt Q9NR97); test: TLR8 inhibition reporter assay (HEK-Blue cells, SEAP reporter, R848 stimulation);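 also: compounds tested from 0.05 nM to 50 µM, 22 h at 37 °C, SEAP measured with HEK-Blue Detection, inhibition relative to agonist plus DMSO versus a known inhibitor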
[2] = target: human TLR7 (Homo sapiens (Human), UniProt Q9NYK1); test: TLR7 inhibition reporter assay (HEK-Blue cells, SEAP reporter, gardiquimod stimulation); format: cell-based
[3] = target: human TLR9 (Homo sapiens (Human), UniProt Q9NR96); test: TLR9 inhibition reporter assay (HEK-Blue cells, SEAP reporter, ODN2006 stimulation);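 also: compounds tested over 0.05 nM to 50 µM, 22 h incubation, inhibition taken as SEAP signal drop from agonist plus DMSO wells toward a known inhibitor control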
[4] = HEK-Blue cells, gardiquimod 7.5 μM
[5] = read-out: TLR8 IC50, HEK-Blue cells overexpressing human TLR8, R848 15.9 μM
[6] = HEK-Blue cells overexpressing human TLR7, gardiquimod 7.5 μM
[7] = read-out: TLR9 IC50, HEK-Blue cells overexpressing human TLR9, ODN2006 5 nM

human TLR7, sequence (Q9NYK1 27-1049): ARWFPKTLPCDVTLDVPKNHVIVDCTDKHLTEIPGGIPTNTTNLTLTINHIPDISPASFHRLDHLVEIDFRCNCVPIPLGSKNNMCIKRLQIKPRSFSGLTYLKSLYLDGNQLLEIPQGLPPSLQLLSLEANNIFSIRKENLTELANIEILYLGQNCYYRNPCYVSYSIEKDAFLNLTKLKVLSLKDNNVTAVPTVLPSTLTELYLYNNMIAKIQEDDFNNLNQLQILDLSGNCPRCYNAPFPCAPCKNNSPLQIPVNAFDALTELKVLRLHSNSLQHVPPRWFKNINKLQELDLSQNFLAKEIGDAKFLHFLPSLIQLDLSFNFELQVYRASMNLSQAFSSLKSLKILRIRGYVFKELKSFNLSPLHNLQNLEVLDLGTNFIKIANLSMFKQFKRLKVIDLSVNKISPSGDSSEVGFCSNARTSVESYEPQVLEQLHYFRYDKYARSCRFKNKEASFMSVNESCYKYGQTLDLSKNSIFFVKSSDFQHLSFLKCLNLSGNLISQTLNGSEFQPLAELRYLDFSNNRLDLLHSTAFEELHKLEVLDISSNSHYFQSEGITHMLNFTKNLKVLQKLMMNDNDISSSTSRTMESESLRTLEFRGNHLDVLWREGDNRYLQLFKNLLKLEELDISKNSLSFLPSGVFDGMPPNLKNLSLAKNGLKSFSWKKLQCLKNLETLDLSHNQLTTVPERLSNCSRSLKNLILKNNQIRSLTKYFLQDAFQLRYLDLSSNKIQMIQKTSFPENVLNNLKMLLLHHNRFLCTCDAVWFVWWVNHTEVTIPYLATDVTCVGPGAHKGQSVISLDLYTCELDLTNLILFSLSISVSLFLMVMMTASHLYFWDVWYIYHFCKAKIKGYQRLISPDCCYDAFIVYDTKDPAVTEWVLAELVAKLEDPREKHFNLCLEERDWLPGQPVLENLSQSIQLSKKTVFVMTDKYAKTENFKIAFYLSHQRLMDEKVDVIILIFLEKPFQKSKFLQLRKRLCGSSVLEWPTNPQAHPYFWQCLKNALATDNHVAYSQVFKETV
human TLR8, sequence (Q9NR97 27-1041): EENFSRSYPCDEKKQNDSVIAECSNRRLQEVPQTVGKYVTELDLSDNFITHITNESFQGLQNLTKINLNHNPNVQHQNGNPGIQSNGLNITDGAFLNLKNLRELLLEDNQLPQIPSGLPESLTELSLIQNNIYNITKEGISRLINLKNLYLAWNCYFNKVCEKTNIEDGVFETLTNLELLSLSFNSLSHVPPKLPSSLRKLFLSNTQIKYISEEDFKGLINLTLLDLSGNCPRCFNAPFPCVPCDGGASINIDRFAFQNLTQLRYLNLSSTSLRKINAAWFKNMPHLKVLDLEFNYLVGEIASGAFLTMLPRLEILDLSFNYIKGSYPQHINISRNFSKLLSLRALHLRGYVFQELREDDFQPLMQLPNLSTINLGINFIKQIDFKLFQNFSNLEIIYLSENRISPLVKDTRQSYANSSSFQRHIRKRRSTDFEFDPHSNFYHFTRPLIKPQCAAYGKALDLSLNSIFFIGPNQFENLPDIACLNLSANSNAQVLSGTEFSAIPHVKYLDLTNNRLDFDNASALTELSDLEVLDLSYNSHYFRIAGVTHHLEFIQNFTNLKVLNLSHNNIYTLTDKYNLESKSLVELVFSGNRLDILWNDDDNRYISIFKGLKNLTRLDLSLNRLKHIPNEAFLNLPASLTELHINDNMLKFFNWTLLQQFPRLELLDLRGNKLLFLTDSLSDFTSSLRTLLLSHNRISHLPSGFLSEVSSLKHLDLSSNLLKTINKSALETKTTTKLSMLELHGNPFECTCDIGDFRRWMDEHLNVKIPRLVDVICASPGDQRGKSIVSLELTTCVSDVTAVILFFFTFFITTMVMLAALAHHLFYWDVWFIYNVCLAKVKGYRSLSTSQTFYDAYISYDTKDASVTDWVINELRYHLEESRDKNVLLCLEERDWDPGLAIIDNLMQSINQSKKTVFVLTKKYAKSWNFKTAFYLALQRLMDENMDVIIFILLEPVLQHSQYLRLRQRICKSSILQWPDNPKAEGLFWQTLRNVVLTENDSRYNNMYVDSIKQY
human TLR9, sequence (Q9NR96 26-1032): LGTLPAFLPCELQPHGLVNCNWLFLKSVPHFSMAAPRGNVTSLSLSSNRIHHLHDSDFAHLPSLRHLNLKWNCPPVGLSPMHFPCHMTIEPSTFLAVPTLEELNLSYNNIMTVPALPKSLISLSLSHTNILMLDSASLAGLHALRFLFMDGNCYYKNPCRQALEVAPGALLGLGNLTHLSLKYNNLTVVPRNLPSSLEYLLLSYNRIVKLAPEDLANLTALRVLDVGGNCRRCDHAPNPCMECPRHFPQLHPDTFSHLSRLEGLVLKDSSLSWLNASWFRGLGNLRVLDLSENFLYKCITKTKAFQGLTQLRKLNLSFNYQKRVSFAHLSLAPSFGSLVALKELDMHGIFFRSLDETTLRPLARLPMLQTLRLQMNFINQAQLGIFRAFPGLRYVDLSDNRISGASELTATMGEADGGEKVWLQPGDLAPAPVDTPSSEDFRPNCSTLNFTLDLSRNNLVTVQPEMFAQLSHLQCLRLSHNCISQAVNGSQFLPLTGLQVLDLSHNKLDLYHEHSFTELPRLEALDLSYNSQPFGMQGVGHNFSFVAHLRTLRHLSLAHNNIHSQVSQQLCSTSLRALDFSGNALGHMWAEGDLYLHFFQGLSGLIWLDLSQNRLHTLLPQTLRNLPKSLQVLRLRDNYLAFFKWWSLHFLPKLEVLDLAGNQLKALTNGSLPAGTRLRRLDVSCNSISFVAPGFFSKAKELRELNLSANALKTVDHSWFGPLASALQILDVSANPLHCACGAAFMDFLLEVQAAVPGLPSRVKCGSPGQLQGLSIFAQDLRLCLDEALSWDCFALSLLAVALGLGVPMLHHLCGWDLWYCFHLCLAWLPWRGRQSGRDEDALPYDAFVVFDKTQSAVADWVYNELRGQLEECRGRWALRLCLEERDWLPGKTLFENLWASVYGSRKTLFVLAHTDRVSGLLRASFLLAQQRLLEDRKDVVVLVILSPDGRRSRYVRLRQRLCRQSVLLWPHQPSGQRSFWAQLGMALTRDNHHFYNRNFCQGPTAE

Structure (SMILES): Cc1nccc(-c2[nH]c3ccc(C4CCN(C5CCN(C(C)C)CC5)CC4)cc3c2C)c1C [Example 812, 2-(2,3-dimethylpyridin-4-yl)-5-(1′-isopropyl-[1,4′-bipiperidin]-4-yl)-3-methyl-1H-indole]
IC50 ([1]; read-out: TLR8 IC50, HEK-Blue cells, R848 15.9 μM): 44.5 nM
IC50 [2, 4]: 404 nM
IC50 ([3]; read-out: TLR9 IC50, HEK-Blue cells, ODN2006 5 nM): 35 nM

Structure (SMILES): COc1ncc(CN2CCC(c3ccc4[nH]c(-c5cc(C)ncc5F)c(C(C)C)c4c3)CC2)cn1 [Example 733, 2-(5-fluoro-2-methylpyridin-4-yl)-3-isopropyl-5-(1-((2-methoxypyrimidin-5-yl)methyl)piperidin-4-yl)-1H-indole]
IC50 [1, 5]: 4.2 nM
IC50 [2, 6]: 11.1 nM
IC50 [3, 7]: 1810 nM

Structure (SMILES): Cc1cc(-c2[nH]c3ccc(C4CCN(Cc5cnc[nH]5)CC4)cc3c2C(C)C)c(C)cn1 [Example 824, 5-(1-((1H-imidazol-5-yl)methyl)piperidin-4-yl)-2-(2,5-dimethylpyridin-4-yl)-3-isopropyl-1H-indole]
IC50 ([1]; TLR8 IC50, HEK-Blue cells, R848 15.9 μM): 1.2 nM
IC50 [2, 4]: 13.8 nM
IC50 ([3]; TLR9 IC50, HEK-Blue cells, ODN2006 5 nM): 729 nM

Structure (SMILES): Cc1cc(-c2[nH]c3ccc(C4CCN(Cc5cc(C)on5)CC4)cc3c2C(C)C)cc(C)n1 [Example 443, 3-((4-(2-(2,6-dimethylpyridin-4-yl)-3-isopropyl-1H-indol-5-yl)piperidin-1-yl)methyl)-5-methylisoxazole]
IC50 [1, 5]: 10.9 nM
IC50 [2, 6]: 22.9 nM
IC50 [3, 7]: 1680 nM

Structure (SMILES): CNC(=O)CN1CCC(c2ccc3[nH]c(-c4cc(C)nc(C5CC5)c4)c(C(C)C)c3c2)CC1 [Example 503, 2-(4-(2-(2-cyclopropyl-6-methylpyridin-4-yl)-3-isopropyl-1H-indol-5-yl)piperidin-1-yl)-N-methylacetamide]
IC50 [1, 5]: 24.1 nM
IC50 [2, 6]: 10.8 nM
IC50 [3, 7]: 1230 nM

Structure (SMILES): Cc1cc(-c2[nH]c3ccc(C4CCN(CC(=O)N5CCCC(C)(C)C5)CC4)cc3c2C(C)C)cc(C)n1 [Example 249, 1-(3,3-dimethylpiperidin-1-yl)-2-(4-(2-(2,6-dimethylpyridin-4-yl)-3-isopropyl-1H-indol-5-yl)piperidin-1-yl)ethan-1-one]
IC50 [1, 5]: 36.3 nM
IC50 [2, 6]: 15.4 nM
IC50 [3, 7]: 973 nM

Structure (SMILES): COc1c(-c2[nH]c3ccc(C4CCNCC4)cc3c2C(C)C)cc[n+]([O-])c1C [Example 57]
IC50 [1, 5]: 281 nM
IC50 [2, 6]: 489 nM
IC50 [3, 7]: 1770 nM

Structure (SMILES): CCc1c(-c2ccnc(OC)c2)[nH]c2ccc(C3CCN(C4C[C@H]5CCC[C@@H](C4)N5C)CC3)cc12 (stereo partly drawn) [Example 798, 3-ethyl-2-(2-methoxypyridin-4-yl)-5-(1-((1R,3r,5S)-9-methyl-9-azabicyclo[3.3.1]nonan-3-yl)piperidin-4-yl)-1H-indole]
IC50 [1, 5]: 165 nM
IC50 [2, 6]: 624 nM
IC50 [3, 7]: 67 nM

Structure (SMILES): CC(C)c1c(-c2ccncc2)[nH]c2ccc(C3CCN(C4CCN(C)CC4)CC3)cc12 [Example 525, 3-isopropyl-5-(1′-methyl-[1,4′-bipiperidin]-4-yl)-2-(pyridin-4-yl)-1H-indole]
IC50 [1, 5]: 6 nM
IC50 [2, 6]: 44.3 nM
IC50 [3, 7]: 190 nM

Further lines, results first:

IC50 [1, 5]: 12.3 nM
IC50 [2, 6]: 19 nM
IC50 [3, 7]: 1930 nM
Structure (SMILES): Cc1cc(-c2[nH]c3ccc(C4CCN(CCC(F)(F)F)CC4)cc3c2C(C)C)ccn1 [Example 676, 3-isopropyl-2-(2-methylpyridin-4-yl)-5-(1-(3,3,3-trifluoropropyl)piperidin-4-yl)-1H-indole]

IC50 [1, 5]: 4.2 nM
IC50 [2, 6]: 3.7 nM
IC50 [3, 7]: 999 nM
Structure (SMILES): COCCCN1CCC(c2ccc3[nH]c(-c4cc(C)nc(C)c4)c(C(C)C)c3c2)CC1 [Example 330, 2-(2,6-dimethylpyridin-4-yl)-3-isopropyl-5-(1-(3-methoxypropyl)piperidin-4-yl)-1H-indole]

IC50 [1, 5]: 700 nM
IC50 [2, 6]: 336 nM
IC50 [3, 7]: > 50000 nM
Structure (SMILES): Cc1cc(-c2[nH]c3ccc(C4CCN(S(=O)(=O)CC(C)C)CC4)cc3c2C(C)C)ccn1 [Example 548, 5-(1-(isobutylsulfonyl)piperidin-4-yl)-3-isopropyl-2-(2-methylpyridin-4-yl)-1H-indole]

IC50 [1, 5]: 124 nM
IC50 [2, 6]: 16.4 nM
IC50 [3, 7]: 28800 nM
Structure (SMILES): Cc1cc(-c2[nH]c3ccc(C4CCN(C(=O)Cc5csc(C)n5)CC4)cc3c2C(C)C)cc(C)n1

IC50 [1, 5]: 3250 nM
IC50 [2, 6]: 1530 nM
IC50 [3, 7]: 6040 nM
Structure (SMILES): Cc1ccc(OC(=O)N2CCC(c3ccc4[nH]c(-c5ccnc(C)c5)c(C(C)C)c4c3)CC2)cc1 [Example 557, p-Tolyl 4-(3-isopropyl-2-(2-methylpyridin-4-yl)-1H-indol-5-yl)piperidine-1-carboxylate]

IC50 ([1]; TLR8 IC50, HEK-Blue cells overexpressing human TLR8, R848 15.9 μM): 1.9 nM
IC50 [2, 6]: 1.9 nM
IC50 ([3]; TLR9 IC50, HEK-Blue cells overexpressing human TLR9, ODN2006 5 nM): 120 nM
Structure (SMILES): CNCCN1CCC(c2ccc3[nH]c(-c4cc(C)nc(C)c4)c(C(C)C)c3c2)CC1 [Example 428, 2-(4-(2-(2,6-dimethylpyridin-4-yl)-3-isopropyl-1H-indol-5-yl)piperidin-1-yl)-N-methylethan-1-amine]
